One assay has as its target GDP-bound KRAS protein (aa 1-169), containing both G12C and C118A amino acid substitutions (Homo sapiens, UniProt P01116, C118A/G12C). As to the kind of experiment: Coupled nucleotide exchange assay (SOS-mediated, AlphaScreen). Conditions: 5 min compound pre-incubation. It counts as biochemical.
Turning to `C=CC(=O)N1CCN(c2nc(C#N)c(-c3ccccc3C(C)C)c3nc(-c4ccccc4F)c(Cl)cc23)CC1` [Example 146, 3-Chloro-2-(2-fluorophenyl)-8-(2-(2-propanyl)phenyl)-5-(4-(2-propenoyl)-1-piperazinyl)-1,6-naphthyridine-7-carbonitrile], the “Coupled exchange IC50 (5 min)” value is reported as 38.7 | nda μM. For `C=CC(=O)N1CCN(c2nc(C(N)=O)c(-c3ccccc3C(C)C)c3nc(-c4ccccc4F)c(Cl)cc23)CC1` [Example 147, 3-Chloro-2-(2-fluorophenyl)-8-(2-(2-propanyl)phenyl)-5-(4-(2-propenoyl)-1-piperazinyl)-1,6-naphthyridine-7-carboxamide], the “Coupled exchange IC50 (5 min)” value is 13.6 | nda μM. As for `C=CC(=O)N1CCN(c2nc(CO)c(C(=O)N3[C@@H](C)CC[C@@H]3C)c3nc(-c4ccccc4F)c(Cl)cc23)CC1` [Example 149, 1-(4-(3-Chloro-8-(((2S,5S)-2,5-dimethyl-1-pyrrolidinyl)carbonyl)-2-(2-fluorophenyl)-7-(hydroxymethyl)-1,6-naphthyridin-5-yl)-1-piperazinyl)-2-propen-1-one], the “Coupled exchange IC50 (5 min)” value was 20.6 | nda μM.

Staying with this assay, now noted: read-out: Coupled exchange IC50 (5 min); 5 min compound pre-incubation.
For orientation: IC50 means the concentration that gives 50% inhibition. Regarding “Mixture of (M)-6-chloro-7-((2R)-2-methyl-1-piperidinyl)-4-((2S)-2-methyl-4-(2-propenoyl)-1-piperazinyl)-1-(2-(2-propanyl)phenyl)pyrido[2,3-d]pyrimidin-2(1H)-one and (M)-6-chloro-7-((2S)-2-methyl-1-piperidinyl)-4-((2S)-2-methyl-4-(2-propenoyl)-1-piperazinyl)-1-(2-(2-propanyl)phenyl)pyrido[2,3-d]pyrimidin-2(1H)-one [Example 115]”, the IC50 worked out at 2920 nM.

Another assay concerns Phosphorylation of ERK1/2 in MIA PaCa-2 cells. The assay is described as follows: Phospho-ERK1/2 MSD assay in MIA PaCa-2 cells. It counts as cell-based. Conditions: Homo sapiens, MIA PaCa-2, 2 h, read-out: p-ERK IC50 (2 h; MIA PaCa-2), 2 h compound treatment. On the procedure: For compounds in Table 89, the following assay conditions were employed:
Phospho-ERK1/2 MSD Assay:
Sixteen hours prior to compound treatment, MIA PaCa-2 or A549 cells were seeded in 96-well cell culture plates at a density of 25,000 cells/well and incubated at 37° C., 5% CO2. A compound dose-response titration was diluted in growth media, added to appropriate wells of a cell culture plate, and then incubated at 37° C., 5% CO2 for 2 or 4 hours (see Table 15). Following compound treatment, cells were stimulated with 10 ng/mL EGF (Roche 11376454001) for 10 min, washed with ice-cold Dulbecco's phosphate-buffered saline, no Ca^2+ or Mg^2+ (ThermoFisher Scientific 14190144), and then lysed in RIPA buffer (50 mM Tris-HCl pH 7.5, 1% Igepal, 0.5% sodium deoxycholate, 150 mM NaCl, and 0.5% sodium dodecyl sulfate) containing protease inhibitors (Roche 4693132001) and phosphatase inhibitors (Roche 4906837001). Phosphorylation of ERK1/2 in compound-treated lysates was assayed using Phospho-ERK1/2 Whole Cell Lysate kits (Meso Scale Discovery K151DWD) according to the manufacturer's protocol. Assay plates were read on a Meso Scale Discovery Sector Imager 6000, and data were analyzed using a 4-parameter logistic model to calculate IC50 values.
Consider `C=CC(=O)N1CCN(c2nc(=O)n(-c3c(C(C)C)ccnc3C)c3nc(-c4c(O)cccc4F)c(Cl)cc23)[C@@H](C)C1` [Example 54-17, 6-chloro-7-(2-fluoro-6-hydroxy-phenyl)-1-(2-methyl-4-(2-propanyl)-3-pyridinyl)-4-((2S)-2-methyl-4-(2-propenoyl)-1-piperazinyl) pyrido[2,3-d]pyrimidin-2(1H)-one], for which the IC50 is 504 nM.

Turning to `C=CC(=O)N1CCN(c2nc(=O)n(-c3ccccc3C(C)C)c3nc(-c4ccccc4O)c(Cl)cc23)[C@@H](C)C1` [Example 54-43, 6-chloro-7-(2-hydroxyphenyl)-4-((2S)-2-methyl-4-(2-propenoyl)-1-piperazinyl)-1-(2-(2-propanyl)phenyl)pyrido [2,3-d]pyrimidin-2(1H)-one], the IC50 is 251 nM. Consider `C=CC(=O)N1CCN(c2nc(=O)n(-c3c(C)cnn3C(C)C)c3nc(-c4c(O)cccc4F)c(Cl)cc23)[C@@H](C)C1` [Example 54-70, 6-chloro-7-(2-fluoro-6-hydroxyphenyl)-1-(4-methyl-1-(2-propanyl)-1H-pyrazol-5-yl)-4-((2S)-2-methyl-4-(2-propenoyl)-1-piperazinyl) pyrido[2,3-d]pyrimidin-2(1H)-one], for which the IC50 worked out at 88 nM. On to `C=CC(=O)N1CCN(c2nc(=O)n(-c3c(C(C)C)ncnc3C(C)C)c3nc(-c4c(O)cccc4F)c(Cl)cc23)[C@@H](C)C1` [Example 55-2], for which the IC50 came to 25 nM. Still for that read-out and setting: the figure for `C=CC(=O)N1CCN(c2nc(=O)n(-c3c(C)ncnc3C(C)C)c3nc(-c4c(O)cccc4F)c(Cl)cc23)[C@@H](C)C1` [Example 55-14, 6-chloro-7-(2-fluoro-6-hydroxyphenyl)-1-(4-methyl-6-(2-propanyl)-5-pyrimidinyl)-4-((2S)-2-methyl-4-(2-propenoyl)-1-piperazinyl)pyrido[2,3-d]pyrimidin-2(1H)-one] is 134 nM; for `C=CC(=O)N1CCN(c2nc(=O)n(-c3c(C)ncnc3C(C)C)c3nc(-c4c(O)cccc4F)c(F)cc23)[C@@H](C)C1` [Example 58-11, 6-fluoro-7-(2-fluoro-6-hydroxyphenyl)-1-(4-methyl-6-(2-propanyl)-5-pyrimidinyl)-4-((2S)-2-methyl-4-(2-propenoyl)-1-piperazinyl)pyrido[2,3-d]pyrimidin-2(1H)-one] it is 742 nM.

Turning to `C=CC(=O)N1CCN(c2nc(=O)n(-c3c(C(C)C)ccnc3C)c3nc(-c4c(O)cccc4F)c(F)cc23)[C@@H](C)C1` [Example 58-15, 6-fluoro-7-(2-fluoro-6-hydroxyphenyl)-1-(2-methyl-4-(2-propanyl)-3-pyridinyl)-4-((2S)-2-methyl-4-(2-propenoyl)-1-piperazinyl)pyrido[2,3-d]pyrimidin-2(1H)-one], the IC50 came out at 365 nM.

Turning to `C=CC(=O)N1CCN(c2nc(=O)n(-c3c(C)cccc3C(C)C)c3nc(-c4c(O)cccc4F)c(F)cc23)[C@@H](C)C1` [Example 58-18, 6-fluoro-7-(2-fluoro-6-hydroxyphenyl)-1-(2-methyl-6-(2-propanyl)phenyl)-4-((2S)-2-methyl-4-(2-propenoyl)-1-piperazinyl)pyrido[2,3-d]pyrimidin-2(1H)-one], the IC50 was found to be 272 nM.

The assay is the same for the next values; noted with them: read-out: p-ERK IC50 (2 h; MIA PaCa-2), 2 h compound treatment.
With `C=CC(=O)N1CCN(c2nc(=O)n(-c3c(C(C)C)ccnc3C)c3nc(-c4c(O)cccc4F)c(Cl)cc23)[C@@H](C)C1` (single isomer, unassigned) [Example 54-17-1], the IC50 stood at 413 nM. With `C=CC(=O)N1CCN(c2nc(=O)n(-c3c(C)cnn3C(C)C)c3nc(-c4c(O)cccc4F)c(Cl)cc23)[C@@H](C)C1` (single isomer, unassigned) [Example 54-71-2], the IC50 is 179 nM. As to `C=CC(=O)N1CCN(c2nc(=O)n(-c3c(C)cccc3CC)c3nc(-c4c(O)cccc4F)c(Cl)cc23)[C@@H](C)C1` (single isomer, unassigned) [Example 55-8-1], the IC50 amounted to 45 nM.

With `C=CC(=O)N1CCN(c2nc(=O)n(-c3c(C)cccc3CC)c3nc(-c4c(O)cccc4F)c(Cl)cc23)[C@@H](C)C1` (single isomer, unassigned) [Example 55-8-2], the IC50 is 160 nM. Take `C=CC(=O)N1CCN(c2nc(=O)n(-c3c(C)ncnc3C(C)C)c3nc(-c4c(O)cccc4F)c(Cl)cc23)[C@@H](C)C1` (single isomer, unassigned) [Example 55-14-1]: the IC50 is 1090 nM. As for `C=CC(=O)N1CCN(c2nc(=O)n(-c3c(C)cccc3C(C)C)c3nc(-c4c(O)cccc4F)c(F)cc23)[C@@H](C)C1` (single isomer, unassigned) [Example 58-18-2], the IC50 was determined as 715 nM. In the case of `C=CC(=O)N1CCN(c2nc(=O)n(-c3ccccc3C(C)C)c3nc(-c4c(O)cccc4F)c(Cl)cc23)CC1` (single isomer, unassigned) [Example 60-24-2, (P)-6-chloro-7-(2-fluoro-6-hydroxyphenyl)-1-(2-(2-propanyl)phenyl)-4-(4-(2-propenoyl)-1-piperazinyl)pyrido[2,3-d]pyrimidin-2(1H)-one], the IC50 amounted to 704 nM. Take `C=CC(=O)N1CCN(c2nc(=O)n(-c3ccccc3C(C)C)c3cc(-c4ccccc4F)c(Cl)cc23)CC1` (single isomer, unassigned) [Example 88-2, 6-chloro-7-(2 fluorophenyl)-1-(2-(2-propanyl)phenyl)-4-(4-(2-propenoyl)-1-piperazinyl)-2(1H)-quinazolinone]: the IC50 was 1650 nM.

Still in this assay, the particulars now being: read-out: p-ERK IC50 (4 h; MIA PaCa-2), 4 h compound treatment.
As to `C=CC(=O)N1CCN(c2nc(=O)n(-c3ccccc3C(C)C)c3nc(-c4c(O)cccc4F)c(Cl)cc23)CC1` (single isomer, unassigned) [Example 60-24-2, (P)-6-chloro-7-(2-fluoro-6-hydroxyphenyl)-1-(2-(2-propanyl)phenyl)-4-(4-(2-propenoyl)-1-piperazinyl)pyrido[2,3-d]pyrimidin-2(1H)-one], the IC50 was found to be 976 nM.

(Values after patent US11090304B2 (Amgen Inc., priority 2018, dated 2021).)
